Legend:
[1] = tested on: hand-foot syndrome caused by anti-tumor agents; experiment: Treatment of established hand-foot syndrome caused by anti-tumor agents in rats (Table 4); type: in vivo
Procedure: After the rats (about 200 g) were fed and adapted for one week, the rats were divided into groups of 10 rats for gavage administration experiment. The anti-tumor agent was dissolved in a mixed solution of Cremophor EL:ethanol=1:1, and diluted with PBS to the required concentration (diluted about 3 times with PBS solution) before gavage. […] Specific experimental procedures followed those outlined in the prevention experiment. […] Table 4 lists the animal experiments using various anti-tumor agents and NO-NSAID ointment, as well as the corresponding experimental results (where the value in the control rate column=the incidence rate of hand-foot syndrome in the blank group−the incidence rate of hand-foot syndrome in the treatment group).

[2] = tested on: chemotherapy-induced hand-foot syndrome; experiment: Prevention of chemotherapy-induced hand-foot syndrome in rat models (Table 5); type: in vivo, SD rats
Procedure: Rat animal model was constructed. After several days, the rats develop hand-foot syndrome in their paws. After one week of acclimatization (about 200 g), the SD rats are divided into groups of 10 rats each, followed by gavage administration experiment. The chemotherapy drugs were dissolved, and each rat was given a gavage dose of 1 mL/100 g. After gavage, the rats were fixed with a fixed cylinder. NO-NSAID ointment was applied to the paws of the rats in the medication group, and blank ointment was applied to the paws of the rats in the blank group (as blank control). […] Table 5 lists the animal experimental combinations of chemotherapy drugs and NO-NSAID ointment, as well as the corresponding experimental results (where the value in the control rate column=the incidence rate of hand-foot syndrome in the blank group−the incidence rate of hand-foot syndrome in the treatment group).

[3] = tested on: human immortalized keratinocytes (HaCaT); experiment: CCK-8 cell viability: alleviation of proliferative toxicity of anti-tumor agents on HaCaT (Table 8-1); type: cell-based; settings: NO-NSAID 100 μM, percentage increase in viable cells vs anti-tumor agent alone
Procedure: (§1) Experiments were conducted using various epithelial cells: Examples 47-51 used human immortalized keratinocytes (HaCaT) with corresponding results in Table 8-1; Examples 52-56 used human oral keratinocytes (HOK) with results in Table 8-2; Examples 57-61 used gastric epithelial cells (GES-1) with results in Table 8-3; Examples 62-66 used human intestinal epithelial cells (FHs 74 Int) with results in Table 8-4.
(§2) The cultured cells were digested the suspended, counted, and seed into a 96-well plate with 5,000-10,000 cells per well. The wells are divided into the following groups: blank control group, anti-tumor agent group, anti-tumor agent+NO-NSAID group, anti-tumor agent solvent group, NO-NSAID solvent control group. Wherein each well of each group contained a basic medium, and the final liquid volume contained in each well was about 100 μL. The grouping situation was as follows: • 1) Blank control group: no solution was added except normally replacing the medium; • 2) Anti-tumor agent group: added the anti-tumor agent solution (the final concentration was shown in Table 8-1 to Table 8-4, the solvent of the anti-tumor agent solution was DMSO); • 3) Anti-tumor agent+NO-NSAID group: added the anti-tumor agent solution and the NO-NSAID solution (the final concentrations of anti-tumor agent and NO-NSAID were shown in Table 8-1 to Table 8-4, and according to the solubility of NO-NSAID, the solvent of NO-NSAID solution was selected as ethanol or sterile water, and minor volume differences in each group were adjusted by added the corresponding solvent); • 4) Anti-tumor agent solvent group: an equal volume of DMSO as contained in the corresponding anti-tumor agent solution in Group 2) was added; • 5) NO-NSAID control group: the same volume and type of solvent (for example, ethanol or sterile water) corresponding to the NO-NSAID contained in group 3) was added.
(§3) The anti-tumor agent solvent group was not involved in data processing and was only used as a reference for evaluating experimental system error. The NO-NSAID solvent control group was used for data correction to eliminate the influence of the solvent on the results.
(§4) After culturing for 24-48 hours, the Cell Counting Kit-8 (CCK-8) detection kit (C0037, Shanghai Beyotime Biotechnology Co., Ltd., Beyotime Biotechnology) was used to determine the cell viability. This allows for the calculation of the proliferative toxicity of anti-tumor agent on cell and the mitigating effect of NO-NSAID on proliferative toxicity. The results were statistically analyzed and plotted using GraphPad Prism 6.0 software and t test.

[4] = tested on: human oral keratinocytes (HOK); experiment: CCK-8 cell viability: alleviation of proliferative toxicity of anti-tumor agents on HOK (Table 8-2); type: cell-based; settings: NO-NSAID 100 μM
Procedure: as §1, §2, §3, §4

[5] = tested on: gastric epithelial cells (GES-1); experiment: CCK-8 cell viability: alleviation of proliferative toxicity of anti-tumor agents on GES-1 (Table 8-3); type: cell-based, human; settings: NO-NSAID 100 μM
Procedure: as §1, §2, §3, §4

[6] = tested on: human intestinal epithelial cells (FHs 74 Int); experiment: CCK-8 cell viability: alleviation of proliferative toxicity of anti-tumor agents on FHs 74 Int (Table 8-4); type: cell-based; settings: NO-NSAID 100 μM
Procedure: as §1, §2, §3, §4

## CC(C(=O)OCCCO[N+](=O)[O-])c1ccc(-c2ccccc2)c(F)c1 (stereo not drawn) [Compound A1]
[1]; Apatinib 105 mg/kg once every two days, ointment 2.50% wt, Days 7
  Response rate: 28.57%
[1]; Cabozantinib 50 mg/kg once every two days, ointment 1% wt, Days 11
  Response rate: 28.57%
[1]; Encorafenib 80 mg/kg once every two days, ointment 2.50% wt, Days 9
  Response rate: 14.29%
[1]; Fruquintinib 40 mg/kg once every two days, ointment 2.50% wt, Days 8
  Response rate: 42.86%
[1]; Lenvatinib 65 mg/kg once a day, ointment 2.50% wt, Days 9
  Response rate: 40.00%
[1]; Olmutinib 100 mg/kg once every two days, ointment 2.50% wt, Days 12
  Response rate: 42.86%
[1]; Regorafenib 90 mg/kg once every two days, ointment 0.50% wt, Days 8
  Response rate: 14.29%
[1]; Sorafenib 80 mg/kg once every two days, ointment 2.50% wt, Days 5
  Response rate: 28.57%
[1]; Sunitinib 120 mg/kg once every two days, ointment 2.50% wt, Days 9
  Response rate: 28.57%
[2]; Capecitabine 4000 mg/kg once a day, ointment 1% wt, Days 40
  Control rate: 37.50%
[2]; Capecitabine 4000 mg/kg once a day, ointment 3% wt, Days 40
  Control rate: 44.44%
[2]; Doxorubicin 7 mg/kg once every three days, ointment 1% wt, Days 30
  Control rate: 50.00%
[3]; Afatinib (10 μM)
  Response rate % (average): 38%
[3]; Cabozantinib (5 μM)
  Response rate % (average): 36%
[3]; Dabrafenib (10 μM)
  Response rate % (average): 2%
[3]; Everolimus (5 μM)
  Response rate % (average): −3%
[3]; Infigratinib (15 μM)
  Response rate % (average): −6%
[3]; Lapatinib (5 μM)
  Response rate % (average): 33%
[3]; Lenvatinib (10 μM)
  Response rate % (average): 24%
[3]; Olmutinib (10 μM)
  Response rate % (average): 42%
[3]; Regorafenib (5 μM)
  Response rate % (average): 41%
[3]; Selumetinib (5 μM)
  Response rate % (average): 19%
[3]; Sorafenib (5 μM)
  Response rate % (average): 25%
[3]; Sunitinib (5 μM)
  Response rate % (average): 15%
[4]; Afatinib (10 μM)
  Response rate % (average): 41%
[4]; Cabozantinib (5 μM)
  Response rate % (average): 23%
[4]; Dabrafenib (10 μM)
  Response rate % (average): 2%
[4]; Everolimus (5 μM)
  Response rate % (average): −2%
[4]; Infigratinib (15 μM)
  Response rate % (average): 1%
[4]; Lapatinib (5 μM)
  Response rate % (average): 12%
[4]; Lenvatinib (10 μM)
  Response rate % (average): 38%
[4]; Olmutinib (10 μM)
  Response rate % (average): 40%
[4]; Regorafenib (5 μM)
  Response rate % (average): 22%
[4]; Selumetinib (5 μM)
  Response rate % (average): 15%
[4]; Sorafenib (5 μM)
  Response rate % (average): 22%
[4]; Sunitinib (5 μM)
  Response rate % (average): 9%
[5]; Afatinib (10 μM)
  Response rate % (average): 24%
[5]; Cabozantinib (5 μM)
  Response rate % (average): 28%
[5]; Dabrafenib (10 μM)
  Response rate % (average): 6%
[5]; Everolimus (5 μM)
  Response rate % (average): 24%
[5]; Infigratinib (15 μM)
  Response rate % (average): 23%
[5]; Lapatinib (5 μM)
  Response rate % (average): 31%
[5]; Lenvatinib (10 μM)
  Response rate % (average): 41%
[5]; Olmutinib (10 μM)
  Response rate % (average): 38%
[5]; Regorafenib (5 μM)
  Response rate % (average): 34%
[5]; Selumetinib (5 μM)
  Response rate % (average): 18%
[5]; Sorafenib (5 μM)
  Response rate % (average): 15%
[5]; Sunitinib (5 μM)
  Response rate % (average): −2%
[6]; Afatinib (10 μM)
  Response rate % (average): 39%
[6]; Cabozantinib (5 μM)
  Response rate % (average): 27%
[6]; Dabrafenib (10 μM)
  Response rate % (average): −9%
[6]; Everolimus (5 μM)
  Response rate % (average): 19%
[6]; Infigratinib (15 μM)
  Response rate % (average): 0%
[6]; Lapatinib (5 μM)
  Response rate % (average): 35%
[6]; Lenvatinib (10 μM)
  Response rate % (average): 43%
[6]; Olmutinib (10 μM)
  Response rate % (average): 34%
[6]; Regorafenib (5 μM)
  Response rate % (average): 37%
[6]; Selumetinib (5 μM)
  Response rate % (average): 29%
[6]; Sorafenib (5 μM)
  Response rate % (average): 17%
[6]; Sunitinib (5 μM)
  Response rate % (average): 21%

Source: patent US20250170090A1, “METHOD FOR PREVENTING OR TREATING DISEASE OR DISORDER ASSOCIATED WITH ANTINEOPLASTIC AGENT” (ONQUALITY PHARMACEUTICALS CHINA LTD., priority 2022, published 2025)
